Measurements taken from patent publication US20170198027A1 (priority 2012, published 2017).
“Also recorded” adds a separate entry of the source. Where two headings read alike, the source gives them in different places.

Legend:
[1] = system: New Zealand white rabbit fed with high fat diet; details: for atherosclerosis Grade: individual animals, listed as APOAI
Description: The treatment groups were given APOAJ via auricular vein once a week Vehicle controls received normal saline via auricular vein once a week. […] The body weight of animal was determined every week and whole blood was drawn every three weeks. The study duration was 19 weeks. At the end of study, all animals were sacrificed. […] Male New Zealand white rabbits were used in this study. […] Blood samples were taken 12 hour after fasting before study to determine the blood lipid parameters. […] Ten to 14 rabbits were in one group. […] First dose was given 1 week before high fat diet. […] 5.2 blood lipid parameters: whole blood was drawn every three weeks. Animals were subject to 12 hour fast before taking blood. […] The upper layer of serum was then separated and examined for total cholesterol (TC), total triglyceride (TG), low density lipoprotein cholesterin (LDL-C), and high density lipoprotein cholesterin (HDL-C). Test reagents were purchased from Shanghai A: The atherosclerosis of aorta (plaque area lj) B: Liver index C: Aorta, liver, heart, arteria carotis, kidney All animals were anesthetized by 20 of ethyl carbamate and then sacrificed with air injection. Abdomen cavity was opened. Whole blood was taken from heart. Heart was harvested along with 7 em of aorta. Then other organs like liver, kidney and arteria carotis were harvested. […] Pictures were taken then. Aorta was cut from aortic arch, opened longitudinally and taken picture. […] One piece of this sample was fixed in fomlalin for further pathological analysis. The weight of liver was determined immediately. Two pieces of specimen were cut from hepatic lobe. One was kept in cryo-preservation tube for lipid analysis and another one was fixed in formalin for further pathological analysis. Animals were fast for 12 hours before taking blood samples via auricular vein. […] Test reagents were purchased from Shanghai Rong Sheng Bio-pharmaceutical Co. Ltd. The aorta was dissected and opened for 7.5 em from aortic arch longitudinally. Pictures were taken and atherosclerosis changing was analyzed.

[2] = system: ApoE ko mice fed with high fat diet
Source text: 10 ApoE ko mice were fed with regular chow diet and used as negative control group. 50 ApoE ko mice were fed with high fat diet (35% kcal fat, 1% cholesterol) for 8 weeks, and then the plasma samples were collected for lipid profile measurement before the treatment. 50 ApoE ko mice were assigned into 5 groups based on the fasting overnight plasma TC and HDL level.
19 Mar. 2012 to 6 Apr. 2012: Group the mice based on the TC and HDL level and start the treatment with 3 doses of antibody APOA1 by i.p daily on the weekday (The first dose was administered by iv injection
13 Apr. 2012-14 May 2012: The treatment with antibody APOA1 was changed to i.p injection every two days (Monday, Wednesday, and Friday) per client's instruction.
Antibody products were administrated by intraperitoneal injection every two days (Monday, Wednesday, and Friday). and the positive compound was administered by p.o every day.
5.4. Body weight and blood glucose measurement: The body weight was weighed weekly during the period of treatment. The fasting overnight blood glucose was measured at the end of study by Roche glucometer.
5.5 24 h food intake measurement: 24 hours food intake for each cage was measured weekly
5.6. Plasma lipid profile measurement: About 300 ul of blood sample was collected from the orbital vein for each mouse and centrifuged at 7000 rpm for 5 min at 4° C. and the plasma lipid profile was measured by Roche Modular automatic biochemistry analyzer in DaAn Medical Laboratory
After RAAS antibody products treatment for 8 weeks, all mice were sacrificed. Measured body weight and collected blood sample for each mouse. Weighed liver weight and saved a tiny piece of liver into 4% paraformaldehyde (PFA) fixation solution for further analysis. At same time, take the photos with heart, lung, aortas and two kidneys.
Scanning the glasses slides with the Aperio ScanScope system and analyze with the image proplus software to measure the area of atherosclerotic plaque session. The results were expressed as the percentage of the total aortic surface area covered by lesions. The operation procedure of software was briefly described as follow: Converted the sys version photos into JPG version, then calibrated it and subsequently selected the red regions and then calculate the total area automatically by image proplus software.
The results were expressed as the Mean±SEM and statistically evaluated by student's t-test.

[3] = system: Apo E(-/-) mice fed with HFD/High Cholesterol diet; test: lipid profile and atherosclerosis plaque in 18 ApoE mice, 4 weeks study; format: in vivo, mouse
Description: [table] […] Before HFD; 4 week: […] After 4 weeks treatment Oil Red staining procedure: • Sacrificed the mice and heart, aorta, and arteries were dissected under the dissecting microscope. […] Stain with freshly prepared Oil Red 0 working solution 10 mins. Image analysis procedure: • The unfolded vascular inner wall “Were scanned with Aperio ScanScope system and the area of atherosclerotic plaque was measured by Image-Proplus software after oil red 0 staining as follow picture shown. We measured the sum lesion areas and mean density using ipp software and calculated atherosclerotic percent. Area percent (%)” Sum area of atherosclerotic plaque (mm2) I whole area of vascular inner wall

[4] = low dose group vs vehicle control
[5] = medium group vs vehicle control

human Apoiipoprotein AI, injection [APOA1]
Lipid content in aorta: HDL-C ([1]; High dose): 0.111
Lipid content in aorta: LDL-C ([1]; High dose): 0.318
Lipid content in aorta: TC ([1]; High dose): 0.29
Lipid content in aorta: TG ([1]; High dose): 0.402
Lipid content in liver: HDL-C ([1]; High dose): 0.825 ± 0.129
Lipid content in liver: LDL-C ([1]; High dose): 2.302 ± 0.054
Lipid content in liver: TC ([1]; High dose): 2.841 ± 0.298
Lipid content in liver: TG ([1]; High dose): 1.3 ± 0.171
Liver index ([1]; High dose (n = 8)): 4.257 ± 0.482%
Liver weight ([1]; High dose (n = 8)): 151.69 ± 18.49 g
Lipid content in aorta: HDL-C ([1]; Low dose): 0.092
Lipid content in aorta: LDL-C ([1]; Low dose): 0.254
Lipid content in aorta: TC ([1]; Low dose): 0.28
Lipid content in aorta: TG ([1]; Low dose): 0.337
Lipid content in liver: HDL-C ([1]; Low dose): 0.803 ± 0.236
Lipid content in liver: TC ([1]; Low dose): 2.95 ± 0.809
Lipid content in liver: TG ([1]; Low dose): 1.369 ± 0.251
Liver index ([1]; Low dose (n = 12)): 3.886 ± 0.489%
Liver weight ([1]; Low dose (n = 12)): 128.096 ± 20.43 g
Liver index ([1]; Medium dose (n = 9)): 3.708−.−i−:( ).391%
Liver weight ([1]; Medium dose (n = 9)): 112.006− −+ .−25.79 g
Lipid content in aorta: HDL-C ([1]; Middle dose): 0.128
Lipid content in aorta: LDL-C ([1]; Middle dose): 0.307
Lipid content in aorta: TC ([1]; Middle dose): 0.332
Lipid content in aorta: TG ([1]; Middle dose): 0.388
Lipid content in liver: HDL-C ([1]; Middle dose): 0.815 ± 0.249
Lipid content in liver: LDL-C ([1]; Middle dose): 1.407 ± 0.418
Lipid content in liver: TC ([1]; Middle dose): 2,214 ± 0.515
Lipid content in liver: TG ([1]; Middle dose): 1.081 ± 0.31
blood lipid parameters ([1]; given along with high fat diet): no significant decrease in blood lipid parameters
TG, lipid content in liver ([1]; high dose group vs vehicle control): significantly lower
atherosclerosis Grade ([1]; high dose group): IV (Grade IV was greater than 75%)
pathological change of aorta ([1]; low dose group): no significant improvement
TG, lipid content in liver [1, 4]: significantly lower
cellular swelling in liver [1, 4]: same
fat degeneration in liver [1, 4]: better
atherosclerosis Grade ([1]; low dose group): I (grade I was less than 25 ?-)); also recorded: IV (Grade IV was greater than 75%)
atherosclerosis Grade ([1]; medium dose group): I (grade I was less than 25 ?-))
area of atherosclerosis ([1]; medium group (40 mg/kg) vs vehicle control): significant less
LDL-C, lipid content in liver [1, 5]: significantly lower
TC, lipid content in liver [1, 5]: significantly lower
TG, lipid content in liver [1, 5]: significantly lower
cellular swelling and fat degeneration in liver [1, 5]: better
pathological change of aorta (endothelium swelling, smooth muscle migrating, foam cell formation) [1, 5]: better
Body weight Wk 19 ([1]; rabbit, in vivo): 3.19-.-i-:( ).278 kg
atherosclerosis change in Arteria carotis ([1]; rabbit, in vivo): no atherosclerosis change found
calcification, pathological examination ([1]; rabbit, in vivo): no calcification found
kidney Pathological change ([1]; rabbit, in vivo): -
pathological change in heart and kidney ([1]; rabbit, in vivo): no pathological change found
high density lipoprotein cholesterin (HDL-C) Wk 19 ([1]; serum, High dose (n = 8)): 4.993 · −+ :2.018 mmol/L
ligh density lipoprotein cholesterin (LDL-C) Wk 0 ([1]; serum, High dose (n = 8)): 0.92 ± 0.324 mmol/L
ligh density lipoprotein cholesterin (LDL-C) Wk 19 ([1]; serum, High dose (n = 8)): 14.1 ± 4.188 mmol/L
total cholesterol (TC) Wk 0 ([1]; serum, High dose (n = 8)): 1.59 .t-J}.48 mmol/L
total cholesterol (TC) Wk 19 ([1]; serum, High dose (n = 8)): 12.49 -t-2.81 mmol/L
high density lipoprotein cholesterin (HDL-C) Wk 0 ([1]; serum, Low dose (n = 12)): 0.705 ± 0.246 mmol/L
high density lipoprotein cholesterin (HDL-C) Wk 19 ([1]; serum, Low dose (n = 12)): 3.744 ± 2.14 mmol/L
ligh density lipoprotein cholesterin (LDL-C) Wk 0 ([1]; serum, Low dose (n = 12)): 0.826 ± 0.279 mmol/L
ligh density lipoprotein cholesterin (LDL-C) Wk 19 ([1]; serum, Low dose (n = 12)): 7.298 ± 4.60 mmol/L
total cholesterol (TC) Wk 0 ([1]; serum, Low dose (n = 12)): 1.06.-i-:0.27 mmol/L
total cholesterol (TC) Wk 19 ([1]; serum, Low dose (n = 12)): 9.07-.+:4.92 mmol/L
total triglyceride (TG) Wk 0 ([1]; serum, Low dose (n = 12)): 0.786 ± 0.229 mmol/L
total triglyceride (TG) Wk 19 ([1]; serum, Low dose (n = 12)): 1.267 ± 0.772 mmol/L
high density lipoprotein cholesterin (HDL-C) Wk 0 ([1]; serum, Medium dose (n = 9)): 0.67 ± 0.207 mmol/L
high density lipoprotein cholesterin (HDL-C) Wk 19 ([1]; serum, Medium dose (n = 9)): 4.343 ± 2.439 mmol/L
ligh density lipoprotein cholesterin (LDL-C) Wk 19 ([1]; serum, Medium dose (n = 9)): 6.357 ± 4.475 mmol/L
total cholesterol (TC) Wk 0 ([1]; serum, Medium dose (n = 9)): 1.77 ± 0.783 mmol/L
total cholesterol (TC) Wk 19 ([1]; serum, Medium dose (n = 9)): 10.28 ± 5.82 mmol/L
total triglyceride (TG) Wk 0 ([1]; serum, Medium dose (n = 9)): 0.656 ± 0.19 J·mmol/L
HDL-C ([1]; serum, all treatment groups vs vehicle control): significantly high
dose escalation effect ([1]; three treatment groups, anatomic, pathological and biochemistry examination): no dose escalation effect
Liver index ([1]; treatment group vs vehicle): lower in treatment group, but there's no statistical difference found
lipid content in aorta ([1]; treatment groups vs vehicle control): lower in treatment groups than that in vehicle control but there was no statistical significance
arteriosclerosis plaque lesion in the region of thoracic aorta (root plaque area) ([2]; APOA1 mid dose and low dose, not significant vs vehicle): trend of reducing the arteriosclerosis plaque lesion
plasma total cholesterol (TC) ([2]; after 8 week treatment, APOA1 low dose): significantly lower total cholesterol level
plasma TG level ([2]; after 8 weeks treatment): no effect
fasting overnight blood glucose ([2]; after 8 weeks treatment vs vehicle): no effect
ratio of liver weight/body weight ([2]; after 8 weeks treatment vs vehicle, RAAS antibody low dose, atorvastatin 20 mg/kg): reduced the ratio of liver weight/body weight significantly
atherosclerosis plaque lesion area of aorta ([2]; after 8 weeks treatment, APOA1 low dose): trend on reducing the plaque lesion area
deaths in the treatment groups ([2]; after 15 doses treatment): several mice died
atherosclerosis plaque lesion from the aortic root to right renal artery ([2]; atorvastatin p=0.08): trend of reducing the atherosclerosis plaque lesion in a dose dependent manner
plasma HDL ([2]; low dose, after 4 weeks treatment): significantly decrease the HDL level
body weight ([2]; vs vehicle group, atorvastatin after 5 weeks treatment): trend on reducing body weight but didn't reach statistic difference
blood plasma lipid profile ([3]; after 5 weeks treatment, 0.2 ml iv/ip): didn't improve the lipid profile
atherosclerotic plaques/lesions ([3]; vs vehicle group after 14 dosing): trend on reducing the atherosclerotic plaques/lesions
